From patent publication US7402433B2, “Method of in-vitro micropropagation of Piper longum plants” (Reliance Life Sciences Pvt. Ltd., priority 2003, dated 2008)

Tests used:
Type in all cases: cell-based
[1] = test system: root segments (rhizogenic tissues) of Piper longum; assay: Shoot bud proliferation from root segments on MS medium with BAP; details: 23° C.
Protocol: Sub-culturing the 18 root segments separately onto MS basal medium supplemented with Benzyl Amino Purine (BAP) (0.5-3 mg/L), 2-4% sucrose, 100 mg/l myo-inositol and 0.7-1.2% agar for solidifying the medium.
Cultures were kept at 23° C. +/−1° C. under 2000-4000 Lux light intensity for a photoperiod of 16 hours followed by a dark period of 8 hours.
Each segment produced 50-55 adventitious shoot buds i.e. (18×50=900 shoot buds).

[2] = test system: regenerated shoots of Piper longum; assay: Rooting of regenerated shoots on MS medium with IBA; details: IBA 0.1-3.1 mg/L
Protocol: 2.5-3 cm long shoots with 2-3 nodes were carefully separated from the culture clumps using a sterile scalpel under LF.
Sub-culturing 10 separated shoots in a wide mouthed bottle containing MS basal medium fortified with Indole Butyric Acid (IBA) (1-3 mg/L), 2-4% sucrose, 100 mg/L myo-inositol and 0.7-1.2% agar.
Rooting of the regenerated shoots under reduced light 1000-3000 Lux for 28 days. Photoperiod and temperatures remains the same as before.

[3] = test system: lateral bud (meristematic) explant of Piper longum; assay: Induction of rhizogenesis from lateral bud explants on culture initiation medium (MS + NAA)
Protocol: Preparing culture initiation medium by using MS basal medium described by Murashige and Skoog in 1968. To the MS basal medium, sucrose (2-4%), agar powder (0.7-1.2%), 100 mg/L myo-inositol and Naphthalene Acetic Acid (NAA) (0.01-0.5 mg/L) was added. This medium was autoclaved at 15 psi for 20 min and then cooled to solidify at room temperature.
Using sterilized forceps, each isolated and surface sterilized lateral bud was inoculated in a test tube containing 15 ml of above-mentioned medium; by placing the cut end of the lateral buds touching the medium.
Incubating the inoculated explants in dark at 23° C. +/−1° C. for 7-15 days. By this time, 6-7 root primordia appear from the basal cut end of all the lateral buds.
Transferring incubated cultures in light having 2000-4000 lux light intensity.
A photoperiod of 16 hours was provided followed by a dark period of 8 hours daily.
Allowing each root to grow to an average size of […] in 45 days.
A lateral bud (meristematic) explant from any position of a young or mature plant of Piper longum was taken and cultured in an MS basal medium supplemented with sucrose (2-4%), NAA (0.1-0.5 mg/l) and gelled with agar (0.7-1.2%). These were incubated in dark for 10 days at 23° C.±1° C. and transferred to a light intensity of 1000-3000 lux for 16 Hrs. followed by 8 Hrs. dark period resulting into rhizogenesis, producing 6-7 root like organs, by direct organogenosis from meristematic tissues of lateral buds, which grew up to 1.5 cm in length by 45th day of isolation.

Compound: c1ccc(CNc2ncnc3[nH]cnc23)cc1 [BAP, Benzylaminopurine]
- adventitious shoot buds produced per root segment ([1]; BAP 0.5-3 mg/L in MS basal medium, 2000-4000 Lux, 16 hours photoperiod): 50-55
- adventitious shoot bud formation ([1]; BAP 0.5-3 mg/L, 0.5 cm long root segments, 2000-4000 lux, 16 Hrs. light/8 Hrs. dark): adventitious shoot bud formation from all the root segments

Compound: Indole Butyric Acid [IBA]
- response of separated shoots (rooting) [2]: All separated shoots were responsive
- root system from the basal cut ends of shoots ([2]; in 4 weeks time): produced healthy root system

Compound: Naphthalene Acetic Acid [NAA]
- root primordia appearing from the basal cut end of the lateral buds ([3]; NAA 0.01-0.5 mg/L in MS basal medium, dark, 23° C. +/−1° C., 7-15 days): 6-7
- root like organs produced by direct organogenesis (rhizogenesis) ([3]; NAA 0.1-0.5 mg/l in MS basal medium, 10 days dark at 23° C., then 1000-3000 lux 16 Hrs./8 Hrs. dark): 6-7
- length of root like organs ([3]; NAA 0.1-0.5 mg/l, by 45th day of isolation): up to 1.5 cm
